Assay results reported in patent US20250019350A1, “SYNTHESIS OF THE PROSTATE SPECIFIC MEMBRANE ANTIGEN (PSMA) RADIOLABELED INHIBITOR [18F]DCFPYL” (Progenics Pharmaceuticals, Inc, priority 2023, published 2025).
“And” between values parts separate entries of the source, which are not always exact repeats. Equal entries are not always repeated.

Assay: Radiolysis / stability of [18F]DCFPyL over time by HPLC with radiodetection (RCP, free 18F, radioactive impurities)
Type: physicochemical
Experimental: Those of ordinary skill in the art will be aware of techniques and systems for determining the radiochemical purity of a composition. In some cases, the radiochemical purity is determined using an HPLC associated with a radio-detector. Generally, the radiochemical purity is determined under ambient conditions (e.g., ambient temperature, ambient humidity, ambient light, etc.), such as in samples stored under such conditions.
Stability was assessed using reverse phase HPLC on a C18 column with a phosphate buffer/acetonitrile gradient mobile phase, and the elution profile was monitored using both UV and radiochemical detectors. Samples were analyzed either by direct injection onto the HPLC, dilution and injection or including the addition of tetraethylammonium fluoride (TEAF) into the sample before injection.
Known amounts of free ^18F either alone or spiked with TEAF were injected onto the analytic column and the eluent from the column collected over the course of a chromatogram and assaying the radioactivity using a Capintec. […] Adding TEAF into the analytic samples was incorporated into subsequent studies examining potential radiolysis of [^18F]DCFPyL to overcome some of the limitations of free ^18F quantification.
Analytical HPLC method was used. The method employs UV detection at 264 nm for chemical impurities, and an Eckert & Ziegler model B-FC-1000 gamma detector for radiochemical assays.

[1] = T = 2.5 hr, 100 mg/mL ascorbic acid pH 2.0, 256 mCi/mL at EOS
[2] = T = 2.5 hr, 20% ethanol in saline, 52 mCi/mL at EOS
[3] = T = 2.5 hr, 20% ethanol in saline, 65 mCi/mL at EOS
[4] = T = 2.5 hr, 20% ethanol in saline, 85 mCi/mL at EOS
[5] = T = 2.5 hr, control without ascorbic acid, 36% ethanol in saline, 147 mCi/mL at EOS
[6] = T = 3.0 hr, 50 mg/mL ascorbic acid pH 5.8 in final product vial, 20% ethanol, 110 mCi/mL at EOS
[7] = T = 3.0 hr, 100 mg/mL ascorbic acid pH 2.0, 256 mCi/mL at EOS
[8] = T = 3 hr, 20% ethanol in saline, 52 mCi/mL at EOS
[9] = T = 3 hr, 20% ethanol in saline, 65 mCi/mL at EOS
[10] = T = 3 hr, 20% ethanol in saline, 85 mCi/mL at EOS
[11] = T = 3 hr, 100% ethanol, 325 mCi/mL at EOS
[12] = T = 3 hr, control without ascorbic acid, 36% ethanol in saline, 147 mCi/mL at EOS
[13] = T = 3.5 hr, 50 mg/mL ascorbic acid pH 5.8 in final product vial, 20% ethanol, 110 mCi/mL at EOS
[14] = T = 3.5 hr, 100 mg/mL ascorbic acid pH 2.0, 256 mCi/mL at EOS
[15] = T = 3.5 hr, 20% ethanol in saline, 52 mCi/mL at EOS
[16] = T = 3.5 hr, 20% ethanol in saline, 65 mCi/mL at EOS
[17] = T = 3.5 hr, 20% ethanol in saline, 85 mCi/mL at EOS
[18] = T = 3.5 hr, control without ascorbic acid, 36% ethanol in saline, 147 mCi/mL at EOS
[19] = T = 4 hr, 0.5 mg/mL ascorbic acid pH 5.8, 20% ethanol, 105.8 mCi/mL at EOS
[20] = T = 4 hr, 1 mg/mL ascorbic acid pH 5.8, 20% ethanol, 107.0 mCi/mL at EOS
[21] = T = 4 hr, 5 mg/mL ascorbic acid pH 5.8, 20% ethanol, 99.0 mCi/mL at EOS
[22] = T = 4 hr, 20 mg/mL sodium citrate, 20% ethanol, 104.8 mCi/mL at EOS
[23] = T = 4 hr, 50 mg/mL ascorbic acid pH 5.8, 20% ethanol, 139.7 mCi/mL at EOS
[24] = T = 4.0 hr, 50 mg/mL ascorbic acid pH 5.8 in final product vial, 20% ethanol, 110 mCi/mL at EOS
[25] = T = 4.0 hr, 100 mg/mL ascorbic acid pH 2.0, 256 mCi/mL at EOS
[26] = T = 4 hr, 20% ethanol in saline, 52 mCi/mL at EOS
[27] = T = 4 hr, 20% ethanol in saline, 65 mCi/mL at EOS
[28] = T = 4 hr, 20% ethanol in saline, 85 mCi/mL at EOS
[29] = T = 4 hr, 100% ethanol, 325 mCi/mL at EOS
[30] = T = 4 hr, control without ascorbic acid, 36% ethanol in saline, 147 mCi/mL at EOS
[31] = T = 5 hr, 100% ethanol, 325 mCi/mL at EOS

Structure (SMILES): O=C(O)CC[C@H](NC(=O)N[C@@H](CCCCNC(=O)c1ccc([18F])nc1)C(=O)O)C(=O)O [Lot 18F-DCFPyL, 2-(3-{1-carboxy-5-[(6-[18F]fluoro-pyridine-3-carbonyl)-amino]-pentyl}ureido)-pentanedioic acid]
- 18F-DCFPyL (RCP) [1]: 98.71%
- Free 18F [1]: 0.31%
- RT 12.0 radioactive impurity [1]: 0.52%
- RT 12.2 radioactive impurity [1]: 0.46%
- 18F-DCFPyL (RCP) [2]: 98.61%
- Free F-18 [2]: 0.86%
- RT 5.0 radioactive impurity [2]: 0.53%
- 18F-DCFPyL (RCP) [3]: 95.36%
- Free F-18 [3]: 3.97%
- RT 5.0 radioactive impurity [3]: 0.41%
- RT 5.9 radioactive impurity [3]: 0.26%
- 18F-DCFPyL (RCP) [4]: 95.06%
- Free F-18 [4]: 4.29%
- RT 5.0 radioactive impurity [4]: 0.31%
- RT 5.9 radioactive impurity [4]: 0.35%
- 18F-DCFPyL (RCP) [5]: 88.79%
- Free F-18 [5]: 9.66%
- RT 5.0 radioactive impurity [5]: 0.62%
- RT 5.9 radioactive impurity [5]: 0.93%
- 18F-DCFPyL (RCP) [6]: 99.25%
- Free 18F [6]: 0.35%
- RT 5.0 radioactive impurity [6]: 0.39%
- RT 5.9 radioactive impurity [6]: 0.27%
- 18F-DCFPyL (RCP) [7]: 98.46%
- Free 18F [7]: 0.29%
- RT 12.0 radioactive impurity [7]: 0.69%
- RT 12.2 radioactive impurity [7]: 0.57%
- 18F-DCFPyL (RCP) [8]: 98.53%
- Free F-18 [8]: 0.99%
- RT 5.0 radioactive impurity [8]: 0.48%
- 18F-DCFPyL (RCP) [9]: 95.64%
- Free F-18 [9]: 4.03%
- RT 5.0 radioactive impurity [9]: 0.34%
- 18F-DCFPyL (RCP) [10]: 95.10%
- Free F-18 [10]: 4.26%
- RT 5.0 radioactive impurity [10]: 0.37%
- RT 5.9 radioactive impurity [10]: 0.27%
- 18F-DCFPyL (RCP) [11]: 95.71%
- Free F-18 [11]: 4.29%
- 18F-DCFPyL (RCP) [12]: 88.94%
- Free F-18 [12]: 9.49%
- RT 5.0 radioactive impurity [12]: 0.70%
- RT 5.9 radioactive impurity [12]: 0.87%
- 18F-DCFPyL (RCP) [13]: 99.46%
- Free 18F [13]: 0.24%
- RT 5.0 radioactive impurity [13]: 0.31%
- 18F-DCFPyL (RCP) [14]: 98.03%
- Free 18F [14]: 0.35%
- RT 12.0 radioactive impurity [14]: 0.88%
- RT 12.2 radioactive impurity [14]: 0.75%
- 18F-DCFPyL (RCP) [15]: 98.55%
- Free F-18 [15]: 0.94%
- RT 5.0 radioactive impurity [15]: 0.52%
- 18F-DCFPyL (RCP) [16]: 95.44%
- Free F-18 [16]: 4.17%
- RT 5.0 radioactive impurity [16]: 0.39%
- 18F-DCFPyL (RCP) [17]: 95.14%
- Free F-18 [17]: 4.51%
- RT 5.0 radioactive impurity [17]: 0.35%
- 18F-DCFPyL (RCP) [18]: 88.90%
- Free F-18 [18]: 9.56%
- RT 5.0 radioactive impurity [18]: 0.59%
- RT 5.9 radioactive impurity [18]: 0.95%
- 18F-DCFPyL (% RCP) [19]: 98.64%
- Free F-18 [19]: 1.36%
- 18F-DCFPyL (% RCP) [20]: 98.56%
- Free F-18 [20]: 1.44%
- Free F-18 (T = 4 hr, 1 mg/mL sodium ascorbate, 20% ethanol, 111.5 mCi/mL at EOS): 2.61%
- 18F-DCFPyL (% RCP) [21]: 99.23%
- Free F-18 [21]: 0.77%
- Free F-18 (T = 4 hr, 5 mg/mL sodium ascorbate, 20% ethanol, 114.6 mCi/mL at EOS): 1.23%
- Free F-18 [22]: 20.65%
- RT 3.4 radioactive impurity [22]: 0.32%
- RT 3.7 radioactive impurity [22]: 0.35%
- 18F-DCFPyL (% RCP) [23]: 99.69%
- Free F-18 [23]: 0.31%
- RT 4.8 radioactive impurity (T = 4 hr, 50 mg/mL ascorbic acid pH 5.8, 20% ethanol, 139.7 mCi/mL at EOS, MPA = 0.25% of main peak): <MPA
- 18F-DCFPyL (RCP) [24]: above 99%
- Free 18F [24]: 0.26%
- RT 5.0 radioactive impurity [24]: 0.37%
- 18F-DCFPyL (RCP) [25]: 98.0% and 97.98%
- Free 18F [25]: 0.37%
- RT 12.0 radioactive impurity [25]: 0.96%
- RT 12.2 radioactive impurity [25]: 0.69%
- 18F-DCFPyL (RCP) (T = 4.0 hr, 100 mg/mL ascorbic acid pH 2.0, 256 mCi/mL at EOS, listed as [^18F]DCFPYL): 98.0%
- 18F-DCFPyL (RCP) [26]: 98.53%
- Free F-18 [26]: 0.98%
- RT 5.0 radioactive impurity [26]: 0.49%
- 18F-DCFPyL (RCP) [27]: 95.50%
- Free F-18 [27]: 4.23%
- RT 5.0 radioactive impurity [27]: 0.27%
- 18F-DCFPyL (RCP) [28]: 94.93%
- Free F-18 [28]: 4.73%
- RT 5.0 radioactive impurity [28]: 0.34%
- 18F-DCFPyL (RCP) [29]: 95.60%
- Free F-18 [29]: 4.40%
- 18F-DCFPyL (RCP) [30]: 89% and 89.06%
- Free F-18 [30]: 9.27%
- RT 5.0 radioactive impurity [30]: 0.71%
- RT 5.9 radioactive impurity [30]: 0.96%
- 18F-DCFPyL (RCP) (T = 4 hr, control without ascorbic acid, 36% ethanol in saline, 147 mCi/mL at EOS, listed as [^18F]DCFPYL): 89%
- 18F-DCFPyL (RCP) [31]: 95.58%
- Free F-18 [31]: 4.42%
- Free F-18 (T = 6 hr, 0.5 mg/mL ascorbic acid pH 5.8, 20% ethanol, 105.8 mCi/mL at EOS): 1.44%
- 18F-DCFPyL (% RCP) (T = 6 hr, 1 mg/mL ascorbic acid pH 5.8, 20% ethanol, 107.0 mCi/mL at EOS): 98.43%
